Laboratory results published in patent US11357748B2, “Methods for treating mendelian disorders of the epigenetic machinery” (THE JOHNS HOPKINS UNIVERSITY, priority 2014, dated 2022).

Experiments:
[1] = tested on: Kmt2d+/βGeo mice; experiment: Morris water maze (hippocampal memory) in the Kmt2d+/βGeo mouse model of Kabuki syndrome; assay type: in vivo; conditions: 10 mg/kg/day
Source text: Kmt2d^+/βGeo mice, also named Mll2Gt^(RRt024) Byg, were acquired from Bay Genomics (University of California). All experimental mice were on a mixed C57BL/6J and 129/SvEv background. Expected Mendelian ratios were observed when heterozygous animals were bred to wild-type. In heterozygous crosses, however, there was uniform embryonic lethality of homozygotes by ED 12, the earliest developmental stage assayed. For treatment with AR-42, mice were orally gavaged daily with drug (Selleck Chemicals, Houston, Tex.) solubilized in vehicle (0.5% methylcellulose, 0.1% Tween-80, water) or with vehicle alone. Drug delivery information was kindly provided by Drs. Chen and Kulp from Ohio State University (Huang et al. (2011) Mol. Pharmacol. 79:197-20619). Drug was administered for 14 days and mice were sacrificed on day 15. Morris water maze testing was initiated at day 7 and a dose of 10 mg/kg/day was used for these studies. For quantification of DCX positive cells, doses of 0, 5, 10 and 25 mg/kg/day were used. Genotyping was performed using primers B-GeoF-([…]; SEQ ID NO: 1) and B-GeoR-([…]; SEQ ID NO: 2) that are specific for the targeted allele and TcrdF-([…]; SEQ ID NO: 3) and TcrdR-([…]; SEQ ID NO: 4) that control for sufficient DNA concentration. Real-time PCR using the same primers allows discrimination between the heterozygous and homozygous state for the targeted allele. Maxillary protrusion was evaluated by ten investigators blinded to genotype and they were asked to rate maxillary protrusion on radiographs as either large (2) or small (1). […] All experiments were performed using mouse protocols approved by the Animal Care and Use Committee of Johns Hopkins University School of Medicine. The mouse protocols used for this study are in accordance with the guidelines used by the NIH for mouse care and handling.
Mice were placed in a 1.1 meter diameter tank filled with room temperature water dyed with non-toxic white paint. For analysis purposes, the tank was divided into four quadrants, with one quadrant containing a small platform submerged 1.5 cm beneath the water. On each day of training, mice were placed in the tank in a random quadrant facing away from the center and were allowed to swim until they found the platform and were left there for 30 seconds. […] Each mouse was given 4 trials per day (for 5 days) with no inter-trial interval and subsequently returned to its home cage. Latency to reach the platform was measured during each trial. The day after the final day of training, the platform was removed for a probe trial where mice were placed in the tank for 90 s. Average number of crossings of the platform's previous location was recorded. Visible/flagged platform training was also performed for 3 days either before the hidden platform or after the probe trial, where a visible flag was placed on the submerged platform, and the time for each mouse to reach the platform was measured for each 60 second trial, four of which were run in the same way as the hidden platform training. For all training and probe testing, data was recorded both manually and electronically with ANY-maze software (San Diego Instruments, San Diego, Calif.) when applicable. All data were collected and analyzed by an individual blinded to genotype and treatment group. Differences in the number of platform crossings during the probe trial were compared between groups with a Student's t-test with significance value set at P<0.05.

[2] = tested on: H3K4 trimethylation and histone acetylation; conditions: Huang et al. (2011); cited from earlier work

With `CC(C)[C@H](C(=O)Nc1ccc(C(=O)NO)cc1)c1ccccc1` [AR-42, (S)—N-hydroxy-4-(3-methyl-2-phenylbutanamido)benzamide] the “functional studies outcome by dose” value [1] was “most improvement in functional studies”, the “escape latency during training, Kmt2d+/βGeo vs Kmt2d+/+ both on drug” value ([1]; FIG. 12B) was “No significant difference is observed” and the “escape latency during training, Kmt2d+/βGeo animals with vs without drug” value ([1]; FIG. 12D) was “No significant difference is observed”. For the same compound, the “frequency of platform crossing during probe trial, Kmt2d+/βGeo mice” value ([1]; FIG. 25F) was “normalized”, the “escape latency during training, Kmt2d+/+ animals with vs without drug” value ([1]; P<0.01, FIG. 12C) was “significant difference” and the “platform crossing during probe trial, both Kmt2d+/+ and Kmt2d+/βGeo mice” value ([1]; greater response in Kmt2d+/βGeo, FIG. 25F) was “improved performance”. The “relative effect on H3K4me3 among HDACi” value [2] was “strongest effect on H3K4me3”.
